Data from PMC4821887, “Identification of chemicals that mimic transcriptional changes associated with autism, brain aging and neurodegeneration” (Nature Communications, 2016).
Structures can show the parent of a compound that is named as a salt.

tested on: mouse cortical neuron cultures; details: not given

Compound	% Dead cells (vehicle subtracted)
COc1ccc(C(c2ccc(OC)cc2)C(Cl)(Cl)Cl)cc1 [Methoxychlor]	-0.6222%
O=[N+]([O-])c1c(Cl)c(Cl)c(Cl)c(Cl)c1Cl [Quintozene]	-2.206%
C#CCN1C(=O)COc2cc(F)c(N3C(=O)C4=C(CCCC4)C3=O)cc21 [Flumioxazin]	7.054%
Cc1ccc(/N=C/N(C)/C=N/c2ccc(C)cc2C)c(C)c1 [Amitraz]	0.3334%
CC1(C)C(C(=O)OC(C#N)c2cccc(Oc3ccccc3)c2)C1(C)C (stereo not shown) [Fenpropathrin (Danitol)]	-1.601%
O=C(O)c1cc(Oc2ccc(C(F)(F)F)cc2Cl)ccc1[N+](=O)[O-] [Acifluorfen]	3.873%
CCC/C(=N\OCC)C1=C(O)CC(CC(C)SCC)CC1=O (stereo not shown) [Sethoxydim]	-0.798%
Mancozeb	1.017%
COC(=O)c1ccccc1C(=O)O [Methyl hydrogen phthalate]	1.938%
CCC(=O)Nc1ccc(Cl)c(Cl)c1 [Propanil]	-3.018%
CCNP(=S)(OC)O/C(C)=C/C(=O)OC(C)C (stereo not shown) [Propetamphos]	-0.3061%
N#Cc1c[nH]cc1-c1cccc2c1OC(F)(F)O2 [Fludioxonil]	-2.856%
CC(C)(C)C(=O)C(Oc1ccc(Cl)cc1)n1cncn1 (stereo not shown) [Triadimefon]	-0.7492%
CCC(C)(C)C(=O)OC1=C(c2ccc(Cl)cc2Cl)C(=O)OC12CCCCC2 [Spirodiclofen]	1.699%
CCO/N=C(\CC)C1=C(O)CC(c2c(C)cc(C)cc2C)CC1=O (stereo not shown) [Tralkoxydim]	4.508%
CCOP(=S)(OCC)Oc1ccc([N+](=O)[O-])cc1 [Parathion]	-1.193%
CCCSP(=O)(OCC)Oc1ccc(Br)cc1Cl (stereo not shown) [Profenofos]	-2.76%
CCOC(=O)C(Cl)Cc1cc(-n2nc(C)n(C(F)F)c2=O)c(F)cc1Cl (stereo not shown) [Carfentrazone-ethyl]	9.785%
OCCOc1ccccc1 [Phenoxyethanol [2-Phenoxyethanol]]	4.907%
O=c1n(Cl)c(=O)n(Cl)c(=O)n1Cl [Symclosene (Trichloro-s-triazinetrione)]	4.474%
O=C(O)C(F)(F)C(F)(F)C(F)(F)C(F)(F)C(F)(F)C(F)(F)C(F)(F)F	-2.482%
S=C1NCCN1 [Ethylenethiourea (2-Imidazolidinethione)]	-0.5482%

Compound	% Dead cells (vehicle subtracted)
CNC(=O)O/N=C/C(C)(C)SC [Aldicarb]	-0.4371%
Oc1cc(Cl)ccc1Oc1ccc(Cl)cc1Cl [Triclosan]	0.6048%
CNC(=O)N(C)c1nnc(C(C)(C)C)s1 [Tebuthiuron]	-0.9604%
Cc1ccccc1CO[C@@H]1C[C@@]2(C(C)C)CC[C@]1(C)O2 (racemic) [Cinmethylin]	-0.5547%
CCSC(=O)N1CCCCCC1 [Molinate]	7.609%
CC(C)(c1ccc(O)cc1)c1ccc(O)cc1.CC(C)(c1ccc(O)cc1)c1ccc(O)cc1	0.9627%
CC(C)C1(C)N=C(c2nc3ccccc3cc2C(=O)O)NC1=O (stereo not shown) [Imazaquin]	-2.73%
CCNC(=O)NC(=O)/C(C#N)=N/OC [Cymoxanil]	3.586%
CCOC1Oc2ccc(OS(C)(=O)=O)cc2C1(C)C (stereo not shown) [Ethofumesate]	-0.3872%
CCCOC(=O)NCCCN(C)C [Propamocarb hydrochloride]	-1.887%
CC(C)Nc1nc(Cl)nc(NC(C)C)n1	0.5652%
COP(=S)(OC)SCn1nnc2ccccc2c1=O [Azinphos-methyl]	-0.9211%
CCOC(=O)CC(SP(=O)(OC)OC)C(=O)OCC (stereo not shown) [Malaoxon]	-0.008689%
CCCCC(C#N)(Cn1cncn1)c1ccc(Cl)cc1 (stereo not shown) [Myclobutanil]	-1.6229%
COP(=S)(OC)Oc1ccc([N+](=O)[O-])c(C)c1 [Fenitrothion]	-1.338%
CCC(C)OC(=O)N1CCCCC1CCO (stereo not shown) [Icaridin]	2.044%
COP(=O)(OC)OC(Br)C(Cl)(Cl)Br (stereo not shown) [Naled]	-0.709%
COCc1cnc(C2=NC(C)(C(C)C)C(=O)N2)c(C(=O)O)c1 (stereo not shown) [Imazamox]	-0.1553%
C=CCOC(Cn1ccnc1)c1ccc(Cl)cc1Cl (stereo not shown) [Imazalil]	0.2633%
CCCCCCC(C)OC(=O)COc1nc(F)c(Cl)c(N)c1Cl (stereo not shown) [Fluroxypyr-meptyl]	-1.2099%
CN(C)C(=S)SSC(=S)N(C)C [Thiram]	0.7821%
O=C(Nc1ccccc1)Nc1ccnc(Cl)c1 [Forchlorfenuron]	0.6006%

Compound	% Dead cells (vehicle subtracted)
Cl[C@H]1[C@H](Cl)[C@@H](Cl)[C@@H](Cl)[C@H](Cl)[C@H]1Cl [Lindane]	3.537%
COP(=O)(OC)C(O)C(Cl)(Cl)Cl (stereo not shown) [Trichlorfon]	2.414%
O=S(=O)(O)C(F)(F)C(F)(F)C(F)(F)C(F)(F)C(F)(F)C(F)(F)C(F)(F)C(F)(F)F [Perfluorooctane sulfonic acid]	6.21%
CN1COCN(Cc2cnc(Cl)s2)/C1=N\[N+](=O)[O-] [Thiamethoxam]	1.407%
CCOP(=S)(Oc1cnc(C(C)(C)C)nc1)OC(C)C (stereo not shown) [Tebupirimfos]	0.1923%
COC(=O)c1c(C(F)F)nc(C(F)(F)F)c(C2=NCCS2)c1CC(C)C [Thiazopyr]	1.196%
O=C1C2CC=CCC2C(=O)N1SC(Cl)(Cl)Cl (stereo not shown) [Captan]	2.374%
COCC(=O)N(c1c(C)cccc1C)C(C)C(=O)OC (stereo not shown) [Metalaxyl]	0.5361%
COC(=O)c1ccc(I)cc1S(=O)(=O)[N-]C(=O)Nc1nc(C)nc(OC)n1.[Na+] [Iodosulfuron-methyl-sodium]	-4.352%
CNC(=O)Oc1cccc2c1OC(C)(C)O2 [Bendiocarb]	9.256%
CCOP(=S)(OCC)SCCSCC [Disulfoton]	2.557%
CCCN(CCC)c1c([N+](=O)[O-])cc(C(F)(F)F)c(N)c1[N+](=O)[O-] [Prodiamine]	-0.1982%
Cc1nc(N(C)C)nc(OC(=O)N(C)C)c1C [Pirimicarb]	-1.736%
CC(C)=CC1C(C(=O)OCc2coc(Cc3ccccc3)c2)C1(C)C (stereo not shown) [Resmethrin]	1.827%
CN=C=S	3.139%
CC(C)N1C(=O)c2ccccc2NS1(=O)=O [Bentazone]	-0.5905%
N#CN [Cyanamide]	0.2955%
CCCCC(CC)CN1C(=O)C2C3C=CC(C3)C2C1=O (stereo not shown)	-0.09059%
CC(C)[C@H](C(=O)O[C@H](C#N)c1cccc(Oc2ccccc2)c1)c1ccc(Cl)cc1 [Esfenvalerate]	4.898%
CCCN(CCOc1c(Cl)cc(Cl)cc1Cl)C(=O)n1ccnc1 [Prochloraz]	-2.048%

same assay, conditions: 10 µM chemical; mouse cortical neuron cultures

% Dead cells (vehicle subtracted)	Compound
1.861%	CCSC(=O)N(CC(C)C)CC(C)C [Butylate]

same assay, conditions: mouse, 24 h, 0.1 µM

Compound	% Dead cells (vehicle subtracted)
CC(C1CC1)C(O)(Cn1cncn1)c1ccc(Cl)cc1 (stereo not shown) [Cyproconazole]	3.058%

same assay, conditions: mouse, 24 h, 1 µM

Compound	% Dead cells (vehicle subtracted)
CC(C1CC1)C(O)(Cn1cncn1)c1ccc(Cl)cc1 (stereo not shown) [Cyproconazole]	5.165%

same assay, conditions: mouse, 24 h, 10 µM

Compound	% Dead cells (vehicle subtracted)
CCN(CC)C(=O)C(C)Oc1cccc2ccccc12 (stereo not shown) [Napropamide]	-2.444%
COC(=O)N(C(=O)N1CO[C@@]2(C(=O)OC)Cc3cc(Cl)ccc3C2=N1)c1ccc(OC(F)(F)F)cc1 [Indoxacarb]	0.6208%
CCCCOCCOCCOCc1cc2c(cc1CCC)OCO2 [Piperonyl butoxide]	-3.535%
O=[N+]([O-])NC1=NCCN1Cc1ccc(Cl)nc1 [Imidacloprid]	-3.0763%
CC(C)(C)[C@@H](O)[C@@H](Cc1ccc(Cl)cc1)n1cncn1 (racemic) [Paclobutrazol]	-2.562%
CC(C)Oc1cc(-n2nc(C(C)(C)C)oc2=O)c(Cl)cc1Cl [Oxadiazon]	5.6039%
CCOC(=O)C(C)OC(=O)c1cc(Oc2ccc(C(F)(F)F)cc2Cl)ccc1[N+](=O)[O-] (stereo not shown) [Lactofen]	-1.539%
CCC(C)Nc1c([N+](=O)[O-])cc(C(C)(C)C)cc1[N+](=O)[O-] (stereo not shown) [Butralin]	4.6194%
CC1(C(=O)Nc2ccc(O)c(Cl)c2Cl)CCCCC1 [Fenhexamid]	-0.6431%
C#CCOC(=O)[C@@H](C)Oc1ccc(Oc2ncc(Cl)cc2F)cc1 [Clodinafop-propargyl]	-2.625%
Cc1cc(C)nc(Nc2ccccc2)n1 [Pyrimethanil]	-4.407%
CCCCOCN(C(=O)CCl)c1c(CC)cccc1CC [Butachlor]	0.2625%
COC(=O)NS(=O)(=O)c1ccc(N)cc1 [Asulam]	1.255%
COc1cnc(OC)n2nc(NS(=O)(=O)c3c(OCC(F)F)cccc3C(F)(F)F)nc12 [Penoxsulam]	-0.3089%
CCOCN(C(=O)CCl)c1c(C)cccc1CC [Acetochlor]	2.3535%
CC(C)(C)C(O)C(Oc1ccc(Cl)cc1)n1cncn1 (stereo not shown) [Triadimenol]	2.51%
OC(c1ccc(Cl)cc1)(c1ccc(Cl)cc1)C(Cl)(Cl)Cl [Dicofol]	1.054%
CC(C1CC1)C(O)(Cn1cncn1)c1ccc(Cl)cc1 (stereo not shown) [Cyproconazole]	6.321%
COC(=O)c1ccccc1CS(=O)(=O)NC(=O)Nc1nc(OC)cc(OC)n1 [Bensulfuron-methyl]	-2.606%
CCOC(=O)C(C)Oc1ccc(Oc2cnc3cc(Cl)ccc3n2)cc1 (stereo not shown) [Quizalofop-ethyl]	-4.709%
C=C(C)CN(CC)c1c([N+](=O)[O-])cc(C(F)(F)F)cc1[N+](=O)[O-] [Ethalfluralin]	1.146%
